This is an account of results in patent US20090246212A1, “DEVELOPMENT OF METHOD FOR SCREENING FOR DRUG CAPABLE OF IMPROVING PRODUCTION OF REGULATORY T CELLS AND METHOD FOR PRODUCING REGULATORY T CELLS USING IMMUNOSUPPRESSIVE MACROLIDE ANTIBIOTIC” (KYOTO UNIVERSITY, priority 2005, published 2009).

For test [1], the system named is CD45RA^+CD25^+CD4^+ T cells. As to the kind of experiment: Expansion culture of CD45RA^+CD25^+CD4^+ T cells with anti-CD3/CD28 beads and IL-2, rapamycin added. Format: cell-based, human. Particulars: for increase of cell number in the culture product: 50 days after start. The method, then:
Venous blood was obtained from healthy volunteers (human). Peripheral blood mononuclear cell (PBMC) was isolated by Ficoll-Hypaque (Amersham Biosciences-Uppsala) density gradient centrifugation. The cells were stained with allophycocyanin (APC)-conjugated anti-CD4 monoclonal antibody (mAb), phycoerythrin (PE)-conjugated anti-CD25 mAb, and fluorescein isothiocyanate (FITC)-conjugated anti-CD45RA mAb for 30 min at 4° C. in the dark, after which the following six different cell fractions were isolated using a BD FACSAria cell sorter (Becton Dickinson)(see FIG. 1A).
CD45RA^+CD25^+CD4^+ T cells or CD45RA^+CD25^−CD4^+ T cells (5×10̂4 cells/well) separated as described above were stimulated with anti-human CD3 and CD28 conjugate beads in a ratio of 4 beads per cell in a 96-well round-bottomed culture plate containing 200 μl per well of a proliferation medium (AlyS505N (produced by Cell Science & Technology Institute) supplemented with 2% human AB serum) in the presence of human IL-2 (1000 U/ml, produced by Cell Science & Technology Institute). Rapamycin (20 nM, produced by Sigma) was added as appropriate. Every 3 to 4 days, half of the medium was replaced with a fresh proliferation medium containing IL-2. If necessary, the cells were separated and repeatedly re-stimulated with anti-CD3/CD28 antibody conjugated beads every 10 to 14 days. Two days before functional assay, the anti-CD3/CD28 antibody conjugated beads were removed magnetically, and the cells were cultured along with 100 U/ml IL-2 in the absence of rapamycin. After 3 times of washing, the cells were used for functional assay.

The test system of test [2] is adjuvant-induced arthritis model. Particulars: model of rheumatoid arthritis; cited from earlier work.

As for `CO[C@H]1C[C@@H]2CC[C@@H](C)[C@@](O)(O2)C(=O)C(=O)N2CCCC[C@H]2C(=O)O[C@H]([C@H](C)C[C@@H]2CC[C@@H](O)[C@H](OC)C2)CC(=O)[C@H](C)/C=C(\C)[C@@H](O)[C@@H](OC)C(=O)[C@H](C)C[C@H](C)/C=C/C=C/C=C/1C` [rapamycin], the figures for the “increase of cell number in the culture product” value in test [1] (rapamycin 20 nM added 7 days after start), in test [1] (rapamycin 20 nM added 39 days after start) and in test [1] (rapamycin 20 nM added from the start of cultivation (day 0)) were “about 60 times”, “about 700 times” and “about 20 times”, respectively. Moreover, the “proliferation of the CD45RA^+CD25^+CD4^+ T cell line” value in test [1] (rapamycin 20 nM added 7 days or 39 days after start of cultivation) is reported as “suppressed after the time of addition”. Further, the “proliferation of CD45RA^+CD25^+CD4^+ T cells” value in test [1] (rapamycin 20 nM added from the start of cultivation) is reported as “suppressed”. Besides, the “efficacy in adjuvant-induced arthritis model” value in test [2] is recorded as “effective”.
